This note sets out measurements from ChEMBL document CHEMBL1125643, “N-(5-fluorobenzothiazol-2-yl)-2-guanidinothiazole-4-carboxamide. A novel, systemically active antitumor agent effective against 3LL Lewis lung carcinoma” (J Med Chem, 1991).

Data set [1] in a line: Drug related lethality is percent animals in treated groups dying prior to first tumor related death in untreated groups measured in BDF1 mice after ip administration at 100 mg/kg dose 2-4 days after tumor challenge. The class given is toxicity, organism-based. More on the design: dose 100 mg/kg, route intraperitoneal. Conditions: BDF1, mus sp., in vivo, read-out: Lethality.

Data set [2] has as its system Mus sp. Kind of data set: In vivo activity measured against 3LL metastasis in BDF1 mice after ip administration at 50 mg/kg dose, dosing on days 3-6 after tumor challenge. The class given is functional. Conditions: route intraperitoneal.
Data set [3] is described as follows: Drug related lethality is percent animals in treated groups dying prior to first tumor related death in untreated groups measured in BDF1 mice after ip administration at 200 mg/kg dose 2-4 days after tumor challenge. Conditions: BDF1, mus sp., in vivo, read-out: Lethality. Set-up: dose 200 mg/kg, route intraperitoneal. The class given is toxicity, organism-based.

The subject of data set [4] is Mus sp. The data set is described as follows: In vivo activity measured against 3LL metastasis in BDF1 mice after ip administration at 50 mg/kg dose, dosing on days 2-4 after tumor challenge. The class given is functional. The settings on record: route intraperitoneal.
Data set [5] concerns Mus sp. Kind of data set: In vivo activity measured against 3LL metastasis in BDF1 mice after ip administration at 100 mg/kg dose, dosing on days 3-6 after tumor challenge. In kind it is functional. Conditions: route intraperitoneal.
Data set [6] is described as follows: Drug related lethality is percent animals in treated groups dying prior to first tumor related death in untreated groups measured in BDF1 mice after ip administration at 25 mg/kg dose 2-4 days after tumor challenge. The class given is toxicity, organism-based. More on the design: dose 25 mg/kg, route intraperitoneal. The settings on record: BDF1, mus sp., in vivo, read-out: Lethality.

The nature of data set [7]: Drug related lethality is percent animals in treated groups dying prior to first tumor related death in untreated groups measured in BDF1 mice after ip administration at 100 mg/kg dose 3-6 days after tumor challenge. The class given is toxicity, organism-based. Set-up: dose 100 mg/kg, route intraperitoneal. The settings on record: BDF1, mus sp., in vivo, read-out: Lethality.

Data set [8] relates to Mus sp. The data set is described as follows: In vivo activity measured against 3LL metastasis in BDF1 mice after ip administration at 25 mg/kg dose, dosing on days 2-4 after tumor challenge. The class given is functional. Conditions: route intraperitoneal.
Data set [9] in a line: Drug related lethality is percent animals in treated groups dying prior to first tumor related death in untreated groups measured in BDF1 mice after ip administration at 50 mg/kg dose 2-4 days after tumor challenge. The class given is toxicity, organism-based. Set-up: dose 50 mg/kg, route intraperitoneal. Conditions: BDF1, mus sp., in vivo, read-out: Lethality.
The test system of data set [10] is Mus sp. The data set is described as follows: In vivo activity measured against 3LL metastasis in BDF1 mice after ip administration at 100 mg/kg dose, dosing on days 2-4 after tumor challenge. In kind it is functional. The settings on record: route intraperitoneal.
In data set [11] the test system is Mus sp. The data set is described as follows: In vivo activity measured against 3LL metastasis in BDF1 mice after ip administration at 200 mg/kg dose, dosing on days 2-4 after tumor challenge. The class given is functional. The settings on record: route intraperitoneal.

In the case of `O=c1[nH]cc(F)c(=O)[nH]1` [FLUOROURACIL], the mortality in data set [1] is 0%; in [3] it was 28%; in data set [6] it was 0%; in data set [7], 14%; in [9], 0%. Further, the T/C (commonly the ratio of treated to control) is on record as 109% in the data set with Mus sp. [2]; 118% with Mus sp. [4]; 125% in the data set with Mus sp. [5]; 114% in the data set with Mus sp. [8]; 127% in the data set with Mus sp. [10]; 141% in the data set with Mus sp. [11].
